System: Blattela
Assay: Knockdown-effect against Blattela in a windtunnel (comparative example)
Assay type: in vivo
Conditions: Rate 0.003% w/v in 80% OPD 120 acetone mixture
Experimental: The knockdown-effect at 30 seconds and 2 minutes of the compounds of Examples 14, 27, 43 and lmiprothrin, a commercially used pyrethroid, against Blattela was assessed.
The tests were carried out in a windtunnel. The active ingredient was diluted to 0.003% w/v in an 80% OPD 120 acetone mixture. Controls (i.e., sprayed with the carrier liquid alone) were inserted at the beginning of the test, and twice at the end.

Structure (SMILES): C#CCN1CC(=O)N(COC(=O)[C@@H]2C(C=C(C)C)C2(C)C)C1=O (mixture of isomers) [Imiprothrin]
- knockdown-effect at 30 sec. (30 sec.): 0%
- knockdown-effect at 2 min (2 min): 10%

From patent publication US20030008913A1, “Derivatives of 2,2-dimethyl 3(2-fluoro vinyl) cyclopropane carboxylic acid, their preparation process and their use as pesticides” (priority 1997, published 2003)
